± gives the standard deviation of the averaged measurements.
Key:
Assay in all cases: surviving fraction relative to DMSO-only wells; higher = less growth inhibition
Details in all cases: exposure time: 5 days
[1] = compound: CC(=O)NCC(=O)N1[C@@H]2CC[C@H]1c1ccc(Nc3ncc(C(F)(F)F)c(NC4CCC4)n3)cc12
In short: (§1)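 Continuous five-day exposure to inhibitors at 0.5, 1, 5, 10, 50, 100, 500 and 1000 nM started 24 hours after log-phase tumour cell lines were seeded at 250–500 cells per well in 384-well plates. Luminescence was read after 10 minutes at room temperature. Viability is given as surviving fraction, meaning CellTiter-Glo luminescence normalised to the median of DMSO-only wells.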

[2] = compound: CC(=O)O[C@H]1C(=O)[C@@]2(C)[C@H]([C@H](OC(=O)c3ccccc3)[C@]3(O)C[C@H](OC(=O)[C@H](O)[C@@H](NC(=O)c4ccccc4)c4ccccc4)C(C)=C1C3(C)C)[C@]1(OC(C)=O)CO[C@@H]1C[C@@H]2O [PACLITAXEL]
In short: as §1

[3] = compound: C[C@]1(O)C[C@@H](c2nc(-c3ccc4ccc(-c5ccccc5)nc4c3)c3c(N)nccn32)C1 [OSI-906]
In short: as §1

[4] = compound: CC[C@@]1(O)C(=O)OCc2c1cc1n(c2=O)Cc2cc3ccccc3nc2-1 [CAMPTOTHECIN]
In short: as §1

[5] = compound: O=C(O)C1(C(=O)O)CCC1.[NH2-].[NH2-].[Pt+2] [CARBOPLATIN]
In short: as §1

HCT15 LARGE INTESTINE
surviving fraction ([1]; 0.5 nM): 0.969 ± 0.062 | surviving fraction ([1]; 1 nM): 0.9727 ± 0.009 | surviving fraction ([1]; 5 nM): 0.971 ± 0.037 | surviving fraction ([1]; 10 nM): 0.98 ± 0.036 | surviving fraction ([1]; 50 nM): 0.394 ± 0.11 | surviving fraction ([1]; 100 nM): 0.211 ± 0.034 | surviving fraction ([1]; 500 nM): 0.17 ± 0.041 | surviving fraction ([1]; 1000 nM): 0.0853 ± 0.0072 | surviving fraction ([2]; 0.5 nM): 1.01 ± 0.012 | surviving fraction ([2]; 1 nM): 1.07 ± 0.024 | surviving fraction ([2]; 5 nM): 0.95 ± 0.077 | surviving fraction ([2]; 10 nM): 0.861 ± 0.074 | surviving fraction ([2]; 50 nM): 0.255 ± 0.064 | surviving fraction ([2]; 100 nM): 0.0833 ± 0.0076 | surviving fraction ([2]; 500 nM): 0.04 ± 0.0036 | surviving fraction ([2]; 1000 nM): 0.0453 ± 0.0032 | surviving fraction ([3]; 0.5 nM): 0.829 ± 0.073 | surviving fraction ([3]; 1 nM): 0.82 ± 0.048 | surviving fraction ([3]; 5 nM): 0.811 ± 0.069 | surviving fraction ([3]; 10 nM): 0.871 ± 0.086 | surviving fraction ([3]; 50 nM): 0.929 ± 0.061 | surviving fraction ([3]; 100 nM): 0.918 ± 0.023 | surviving fraction ([3]; 500 nM): 0.911 ± 0.073 | surviving fraction ([3]; 1000 nM): 0.921 ± 0.04 | surviving fraction ([4]; 0.5 nM): 0.33 ± 0.031 | surviving fraction ([4]; 1 nM): 0.779 ± 0.041 | surviving fraction ([4]; 5 nM): 0.232 ± 0.083 | surviving fraction ([4]; 10 nM): 0.0333 ± 0.0047 | surviving fraction ([4]; 50 nM): 0.0227 ± 0.0038 | surviving fraction ([4]; 100 nM): 0.0337 ± 0.0038 | surviving fraction ([4]; 500 nM): 0.0207 ± 0.0021 | surviving fraction ([4]; 1000 nM): 0.0277 ± 0.0038 | surviving fraction ([5]; 0.5 nM): 1.1 ± 0.067 | surviving fraction ([5]; 1 nM): 1.04 ± 0.056 | surviving fraction ([5]; 5 nM): 1.04 ± 0.065 | surviving fraction ([5]; 10 nM): 1.03 ± 0.096 | surviving fraction ([5]; 50 nM): 1.06 ± 0.072 | surviving fraction ([5]; 100 nM): 1.09 ± 0.045 | surviving fraction ([5]; 500 nM): 1.06 ± 0.036 | surviving fraction ([5]; 1000 nM): 1.08 ± 0.04
